{"source": "patent US10292992B2", "about": "“Selective high-affinity polydentate ligands and methods of making such” (LAWRENCE LIVERMORE NATIONAL SECURITY, LLC, priority 2008, dated 2019)", "key": {"[1]": {"tested_on": "Raji cells expressing HLA-DR10", "test": "Whole cell binding assay with 111In-labeled SHAL", "assay_type": "cell-based, human", "conditions": "for SHAL bound by Raji cells relative to parent SHAL: unwashed", "description": "Raji human Burkitt's lymphoma B-cells (American Type Culture Collection, Manassas, Va.) were maintained in RPMI-1640 media supplemented with 10% fetal bovine serum, 2mM L-glutamine, 1 mM sodium pyruvate, 1% of a solution of nonessential amino acids (GIBCO #11140-050), and 100 units/ml of Penicillin G, 100 μg/ml Streptomycin, and 0.25 μg/ml of Amphotericin B at 37° C. in a humidified 5% CO2 atmosphere. Jurkat's cells (American Type Culture Collection, Manassas, Va.), an acute leukemia T-cell line, were maintained in the same medium with the addition of 10 mM 4-(2-hydroxyethyl)-1-piperazineethanesulfonic acid (HEPES).\nA series of experiments were conducted to quantify the uptake of the ^111In-labeled parent SHAL (DvLPBaPPP)2LLDo and its hexa-arginine analog (DvLPBaPPP)2LArg6AcLLDo by Raji cells, a cell line that has been previously shown to express the HLA-DR10 variant. The assays were conducted using aliquots containing 10^6 cells suspended in 150 μl of PBS with 5% bovine serum albumin (BSA). Aliquots of cells were treated with 0.1, 1, 5, 10 or 25 ng of ^111In-labeled (DvLPBaPPP)2LLDo or (DvLPBaPPP)2LArg6AcLLDo for one hour at both 4° C. and 22° C. The tubes containing the treated cells were centrifuged to separate the cell pellet from the supernatant and the two fractions were counted in a calibrated gamma well counter to determine the amount of bound and free SHAL. Half of the cell pellets were washed twice with PBS and incubated at 22° C. for 15 min before centrifuging them again. The pooled washes and washed cell pellets were subsequently counted in the gamma well counter to assess how much of the bound SHAL could be removed by washing.\nIn vitro cell binding experiments were conducted using ^111In-labeled parent SHAL and the hexa-arginine SHAL analog to quantify SHAL uptake and to evaluate the effect of adding the hexa-arginine tag. Uptake was assessed using Raji cells, a lymphoma cell line expressing HLA-DR10. Aliquots containing 10^6 cells were incubated with increasing amounts of SHAL containing ^111In labeled SHAL as a tracer, and cell-associated ^111In was measured before and after washing the cell pellets."}, "Raji xenografts": {"tested_on": "Raji xenografts", "test": "Efficacy in mice with Raji xenografts", "assay_type": "in vivo, athymic Balb/c nu/nu mice", "from_the_text": "(§1) Seven- to nine-week old female, athymic Balb/c nu/nu mice (Harlan Sprague Dawley, Inc., Frederick, Md.) were maintained according to University of California animal care guidelines under pathogen-free conditions and on a normal ad libitum diet. Raji or Jurkat's cells harvested in log phase and having >95% viability were implanted (6×10^6 cells) subcutaneously in the lower abdomen 3-4 days after the mice were irradiated (400 cGy) to suppress xenograft rejection. When xenografts reached 20-500 mm3 by caliper measurement, the mice were sorted by xenograft volume into 4 groups: SHAL-treated mice with Raji xenografts, SHAL-treated mice with Jurkat's xenografts, untreated mice with Raji xenografts or untreated mice with Jurkat's xenografts. Each mouse was injected with 100 μl of PBS or 100 ng DOTA-chelated tridentate SHAL i.p. on days 0, 7 and 14. Xenograft volume and survival were monitored for ≥84 days. The mice were also weighed 2-3 times each week for 4 weeks then weekly. Blood counts were measured prior to each SHAL or PBS dose and weekly for 4 weeks after the final dose using a Z Series Coulter Counter (Beckman Coulter Inc., Hialeah, Fla.) and a phase contrast microscope (Zeiss, Jena, Germany).\n(§2) Xenograft volumes were calculated by the formula for hemiellipsoids (DeNardo et al. (1997) Clin. Cancer Res. 3: 71-79). […] If a xenograft became >2000 mm3, the mouse was euthanized in accordance with University of California animal care guidelines and scored as a disease-related death.\n(§3) Initial analysis compared response rates by exact tests and survival times by log-rank tests for untreated Raji and Jurkat's mice and found no significant differences, so these groups were pooled for subsequent analysis. Response rates for treated Raji, treated Jurkat's and untreated mice were compared by x^2 and exact tests. Survival times were censored at 84 days for mice who had not died or been euthanized because of tumor growth before that time. Times were summarized descriptively by Kaplan-Meier curves and median survival and 95% confidence limits were obtained by the product-limit estimate. The two treated groups were compared to the untreated using a log-rank test for homogeneity across groups, followed by a proportional hazards model to estimate the effect of treatment compared to no treatment. Analyses were carried out using SAS/SAT® software (SAS Institute, Inc. SAS/STAT Version 9.0. 2004. Cary, N.C.: SAS Institute). All tests were two-sided at level 0.05."}, "Jurkat's xenografts": {"tested_on": "Jurkat's xenografts", "test": "Efficacy in mice with Jurkat's xenografts", "assay_type": "in vivo, athymic Balb/c nu/nu mice", "from_the_text": "as §1, §2, §3"}, "[2]": {"conditions": "100 ng DOTA-chelated tridentate SHAL i.p. days 0, 7 and 14"}, "[3]": {"conditions": "100 ng SHAL i.p. once weekly for 3 consecutive weeks"}}, "note": "Entries after “also recorded” stand apart in the source; their conditions may differ.", "data": [{"smiles": "CC(=O)NC(CCCNC(=N)N)C(=O)NC(CCCNC(=N)N)C(=O)NC(CCCNC(=N)N)C(=O)NC(CCCNC(=N)N)C(=O)NC(CCCNC(=N)N)C(=O)NC(CCCNC(=N)N)C(=O)NCCCCC(NC(=O)C(CCCCNC(=O)COCCOCCNC(=O)COCCOCCNC(=O)COCCOCCNC(=O)C(CCCCNC(=O)COCCOCCNC(=O)c1ccc(NC(=O)C(CCCNC(=N)N)NC(=O)c2ccccc2)cc1)NC(=O)C(NS(=O)(=O)c1ccc(N=Nc2ccc(N(C)C)cc2)cc1)C(C)C)NC(=O)COCCOCCNC(=O)COCCOCCNC(=O)COCCOCCNC(=O)C(CCCCNC(=O)COCCOCCNC(=O)c1ccc(NC(=O)C(CCCNC(=N)N)NC(=O)c2ccccc2)cc1)NC(=O)C(NS(=O)(=O)c1ccc(N=Nc2ccc(N(C)C)cc2)cc1)C(C)C)C(=O)NC(CCCCNC(=O)CN1CCN(CC(=O)O)CCN(CC(=O)O)CCN(CC(=O)O)CC1)C(=O)O", "note": "(stereo not shown) [(DvLPBaPPP)2LArg6AcLLDo]", "values": [{"measurement": "pmoles SHAL Bound/10^6 cells unwashed", "setting": "[1]; 5.3 pmoles of 111In-labeled SHAL, unwashed cell pellets", "result": "1.300 ± 0.038 pmoles SHAL Bound/10^6 cells"}, {"measurement": "pmoles SHAL Bound/10^6 cells Washed", "setting": "[1]; 5.3 pmoles of 111In-labeled SHAL, washed two times with BSA/buffer", "result": "0.876 ± 0.017 pmoles SHAL Bound/10^6 cells"}, {"measurement": "SHAL remaining associated with Raji cells after washing relative to parent SHAL", "setting": "[1]; 111In-labeled, after washing, listed as hexa-arginine SHAL", "result": "Three fold more; also recorded: three times"}, {"measurement": "SHAL bound by Raji cells relative to parent SHAL", "setting": "[1]; 111In-labeled, listed as hexa-arginine SHAL", "result": "twice as much"}, {"measurement": "SHAL bound by Raji cells relative to parent SHAL", "setting": "[1]; 111In-labeled, listed as hexa-arginine SHAL analog", "result": "two fold more"}, {"measurement": "proportion of SHAL retained by the cells after washing", "setting": "[1]; Raji cells, after washing", "result": 67, "unit": "%"}, {"measurement": "Percent SHAL Retained", "setting": "[1]; after washing two times", "result": 67, "unit": "%"}, {"measurement": "amount of residualized SHAL", "setting": "[1]; highest concentration tested", "result": "~1.1×10^6 SHAL molecules per cell"}]}, {"smiles": "CC(C)C(NS(=O)(=O)c1ccc(N=Nc2ccc(N(C)C)cc2)cc1)C(=O)NCCOCCOCC(=O)NC(CCCCNC(=O)C(CCCCNC(=O)CC(=O)Nc1ccccc1Oc1ncc(C(F)(F)F)cc1Cl)NC(=O)COCCOCCNC(=O)c1ccc(N2CCN(Cc3ccc(Cl)cc3)CC2)c([N+](=O)[O-])c1)C(=O)NCCOCCOCC(=O)NC(CCCCNC(=O)CN1CCN(CC(=O)O)CCN(CC(=O)O)CCN(CC(=O)O)CC1)C(=O)O", "note": "(stereo not shown) [tridentate SHAL]", "values": [{"measurement": "ORR (overall response rate)", "setting": "Raji xenografts; [2]", "result": 77, "unit": "%"}, {"measurement": "Cure", "setting": "Raji xenografts; 100 ng DOTA-chelated tridentate SHAL i.p. days 0, 7 and 14, censored at 84 days", "result": 69, "unit": "%"}, {"measurement": "overall survival (FIG. 31)", "setting": "Raji xenografts; [3]", "result": "longest survival"}, {"measurement": "median survival time", "setting": "Raji xenografts; 100 ng SHAL i.p. weekly x3, censored at 84 days", "result": "not estimable"}, {"measurement": "xenograft response in one mouse (FIG. 30)", "setting": "Raji xenografts; by three weeks after the initial 100 ng dose i.p.", "result": "completely regressed"}, {"measurement": "persistence of cures", "setting": "Raji xenografts; cures at 84 days", "result": "persisted over a 210-day observation time"}, {"measurement": "reduction in hazard of death", "setting": "Raji xenografts; treated Raji mice compared to untreated and treated Jurkat's mice, proportional hazards model", "result": 85, "unit": "%"}, {"measurement": "time at which regression began after initial SHAL treatment", "setting": "Raji xenografts; treated Raji xenografts", "result": "~7", "unit": "days"}, {"measurement": "time to complete remission after initial SHAL treatment", "setting": "Raji xenografts; treated Raji xenografts", "result": "~30", "unit": "days"}, {"measurement": "Cure", "setting": "Jurkat's xenografts; [2]", "result": 0, "unit": "%"}, {"measurement": "ORR (overall response rate)", "setting": "Jurkat's xenografts; [2]", "result": 0, "unit": "%"}, {"measurement": "longest survival (FIG. 31)", "setting": "Jurkat's xenografts; [3]", "result": "≤ 56", "unit": "days"}, {"measurement": "effect of SHAL treatment on Jurkat's xenografts", "setting": "Jurkat's xenografts; mouse, in vivo", "result": "not affected"}, {"measurement": "median survival time", "setting": "Jurkat's xenografts; treated mice with Jurkat's xenografts", "result": 21, "unit": "days"}]}]}
